Where two headings read alike, the source gives them in different places. Where a SMILES comes first, the peptide text is derived from it.
What was measured:
Candida cells = test: Fungicide effect, spotting of treated cells on solid YPD medium; type: cell-based, Candida species; settings: 1.56–25 µM, 24 h treatment, dilutions spotted on solid YPD medium, 48 h, 30 °C
Procedure: To determine whether the inhibitory effect of the peptides is generated by fungistatic or fungicide action, the Candida cells were treated with the peptides in the same concentration range (1.56–25 µM) as in the growth inhibition assay. After 24 h 5 µL sample from the untreated control cells and from the peptide treated cells was added to 95 µL water and diluted further 10- and 100-fold. From each dilution, 5 µL was placed on solid medium and the growth of the control and peptide treated cells was compared after 48 h incubation at 30 °C. This assay confirmed that all the effective peptides, NCR335N1–19, NCR335N7–21, NCR335C1–33, NCR335C13–33, NCR335C17–33, NCR169C17–38, NCR169C17–38ox, NCR169C17–38W10,20/A provoked growth inhibition through fungicidal actions (Figure A2). The fungicide concentrations, required for the complete elimination of the Candida cells, were either equal to or twice higher than the minimum inhibitory concentrations presented in Table 2.
The same initial experimental setting was used to determine the fungicide effect of the peptides. Five µL samples were taken from the cultures after 24 h and were added to 95 µL sterile distilled water, and diluted to 10- and 100-fold (indicated as 10^4, 10^3 and 10^2 based on the cell number of the control culture in Figure A2). Five µL from each dilution were placed on solid YPD medium and the growth of the strains was detected after 48 h incubation at 30 °C.

[1] = system: C. tropicalis CBS 94 biofilm; test: Morphology of biofilm-located cells, scanning electron microscopy; type: cell-based, Candida tropicalis; settings: SEM, 72 h, 37 °C, 1.56 µM peptide
[2] = system: C. albicans SC 5314 biofilm; test: Biofilm formation assay, XTT; type: cell-based, Candida albicans; settings: 72 h, 37 °C, 5 % CO2, 1/8AIM medium, p ≤ 0.0001
C. auris = settings: for reduction of MIC in the synergistic combination: compared with single use
Procedure: Amphotericin B, due to its high toxicity was not included in this assay.
The effects of the different combinations of fluconazole and NCR335C17–33, NCR169C17–38 or NCR169C17–38ox were determined by standard checkerboard titration method. The fluconazole was tested in a concentration range from 6.25 to 75 µM, NCR169C17–38 and NCR169C17–38ox from 0.78 to 12.50 µM, NCR335C17–33 from 1.56 to 25 µM. The initial cell concentration in each well was 4 × 10^4 cell/mL. After the incubation for 72 h at 30 °C, the optical density of the cultures was detected at 620 nm in SPECTROstar Nano plate reader (BMG LabTech, Offenburg, Germany). The inhibitory concentrations were determined for each compound alone and in combinations. The experiments were carried out at least three times. The effect of combinations was evaluated by fractional inhibitory concentration (FIC) index. FIC = FICA + FICB. FICA = (MICA in combination)/(MICA alone); FICB = (MICB in combination)/(MICB alone)

[3] = system: C. albicans ATCC 10231 biofilm; test: Biofilm formation assay, XTT; type: cell-based, Candida albicans; settings: 72 h, 37 °C, 5 % CO2, 1/8AIM medium, p ≤ 0.0001
C. tropicalis CBS 94 = test: Yeast-hypha morphology, bright-field microscopy; type: cell-based, Candida tropicalis; settings: 1.56 µM peptide, 48 h, 1/8AIM medium
Source text: (§1) As hyphae formation is an important virulence factor, we investigated how the broad range activity peptides, NCR335C17–33, NCR169C17–38 and NCR169C17–38ox affect the morphological switch of C. albicans ATCC 10231 and C. tropicalis between the hyphal and yeast growth forms at sub-lethal concentrations (Figure 1). […] However, not only the morphology changed, but the cell number also declined, particularly in the latter case.
(§2) To induce morphological change of C. albicans and C. tropicalis YNB medium was changed for eight-fold diluted AIM-V+AlbuMAX (BSA) medium (Gibco, Thermo Fisher Scientific, Dublin, Ireland) referred to as 1/8AIM in the text.
(§3) Bright-field microscopy. The morphology of C. albicans ATCC 10231 and C. tropicalis cells was examined after 48 h incubation with the selected peptides (NCR335C17–33 and NCR169C17–38) by Zeiss Axio Observer inverted microscope (Carl Zeiss AG, Jena, Germany). The concentration of the NCR335C17–33 was 1.56 and 3.12 µM, NCR169C17–38 1.56 or 3.12 µM while NCR169C17–38ox 0.78 or 3.12 µM, the initial cell concentration was set to 4 × 10^4 cell/mL. Cells cultivated without peptides were used as control.

[4] = system: C. tropicalis CBS 94 biofilm; test: Biofilm formation assay, XTT; type: cell-based, Candida tropicalis; settings: 72 h, 37 °C, 5 % CO2, 1/8AIM medium, p ≤ 0.0001
[5] = system: Candida parapsilosis CBS 604; test: microbe, parasite or virus in culture; type: cell-based; settings: micro-dilution, YNB medium, 4 × 10^4 cell/mL, 48 h, 30 °C, OD 620 nm; MIC = growth inhibition ≥90%; peptides 25 to 1.56 µM, fluconazole 200 to 0.78 µM; three biological repeats in triplicates; further: key: -: no growth inhibition was observed
Procedure: (§4) The antifungal activity of all the 14 peptides was tested against the following opportunistic human pathogen Candida species and strains: C. albicans strains ATCC 10231, SC 5314 and SZMC 1458, C. auris 0381, C. glabrata CBS 138, C. parapsilosis CBS 604 and C. tropicalis CBS 94.
(§5) All the Candida strains (Table 4) were grown overnight in YPD medium (1% pepton, 1% dextrose, 0.5% yeast extract) at 30 °C in water bath shaker prior to each experiments. The cells were harvested by centrifugation (5 min, 3000× g) washed twice with sterile distilled water and suspended in 5-fold diluted Difco Yeast Nitrogen Base w/o Amino Acids medium (Becton, Dickinson and Company, Sparks, MD, USA) supplemented with 1% dextrose, referred to as YNB medium in the text. Cells were counted in Bürker chamber and diluted to the proper concentration.
(§6) The growth inhibition of the peptides listed in Table 1 was tested in 96-well microtiter plates on Candida strains. The minimal inhibitory concentration (MIC) was determined with the micro-dilution method by adding 5 µL serially two-fold-diluted peptide solution to 95 µL of cell suspension (4 × 10^4 cell/mL) in YNB medium. After 48 h of incubation at 30 °C the optical density of the cultures was measured at 620 nm in SPECTROstar Nano plate reader (BMG LabTech, Offenburg, Germany). Minimal inhibitory concentration was defined as growth inhibition ≥90% compared to 100% growth of the untreated control. The experiments were carried out in three biological repeats always in triplicates.

[6] = system: C. albicans ATCC 10231 biofilm; test: Morphology of biofilm-located cells, scanning electron microscopy; type: cell-based, Candida albicans; settings: SEM, 72 h, 37 °C, sub-lethal concentrations
[7] = system: C. albicans SZMC 1458 biofilm; test: Biofilm formation assay, XTT; type: cell-based, Candida albicans; settings: 72 h, 37 °C, 5 % CO2, 1/8AIM medium, p ≤ 0.0001
C. albicans ATCC 10231 = test: Yeast-hypha morphology, bright-field microscopy; type: cell-based, Candida albicans; settings: 3.12 µM peptide, 48 h, 1/8AIM medium, sub-lethal concentration
Source text: as §1, §2, §3

Candida auris 0381 = test: microbe, parasite or virus in culture; type: cell-based; settings: micro-dilution, YNB medium, 4 × 10^4 cell/mL, 48 h, 30 °C, OD 620 nm; MIC = growth inhibition ≥90%; peptides 25 to 1.56 µM, fluconazole 200 to 0.78 µM; three biological repeats in triplicates; further: key: -: no growth inhibition was observed
Procedure: as §4, §5, §6

[8] = NCR169C17–38 + NCR169C17–38ox, C. auris
[9] = NCR169C17–38 + NCR335C17–33, C. auris
[10] = checkerboard, C. auris, 72 h, 30 °C, drug A fluconazole + drug B NCR169C17–38

| SMILES | growth inhibition by fungistatic or fungicide action (Candida cells) | morphology of cells in the biofilm [1] | concentration significantly inhibiting biofilm formation, relative to MIC [2] | Action (C. auris; [9]) | concentration significantly inhibiting biofilm formation, relative to MIC [3] | effect on hyphal/yeast growth form (C. tropicalis CBS 94) | concentration significantly inhibiting biofilm formation, relative to MIC [4] | morphology of cells in the biofilm [6] | concentration significantly inhibiting biofilm formation, relative to MIC [7] | effect on hyphal growth (C. albicans ATCC 10231) | also measured |
| --- | --- | --- | --- | --- | --- | --- | --- | --- | --- | --- | --- |
| CC[C@H](C)[C@H](NC(=O)[C@H](CCCCN)NC(=O)[C@H](Cc1ccccc1)NC(=O)[C@H](CC(C)C)NC(=O)[C@@H]1CCCN1C(=O)[C@H](CCCCN)NC(=O)[C@H](CCCCN)NC(=O)[C@H](CO)NC(=O)[C@@H](N)CCCCN)C(=O)N[C@@H](Cc1c[nH]c2ccccc12)C(=O)N[C@@H](CCCCN)C(=O)N[C@@H](CS)C(=O)N[C@H](C(=O)N[C@@H](CCC(=O)O)C(=O)N[C@@H](CC(N)=O)C(=O)N[C@H](C(=O)N[C@@H](CS)C(=O)N[C@H](C(=O)N[C@@H](CC(C)C)C(=O)N[C@@H](Cc1c[nH]c2ccccc12)C(=O)N[C@@H](Cc1ccc(O)cc1)C(=O)N[C@@H](CCCCN)C(N)=O)C(C)C)C(C)C)C(C)C [NCR169C17–38] (H-KSKKPLFKIWKCVENVCVLWYK-NH2; N-terminus assumed) | fungicidal | the cell number was drastically reduced, and the yeast form was also dominant | one-fourth of the MIC | Synergism | half MIC | shifted to the yeast form | half MIC | reduced the abundance of the hyphal form | MIC | completely inhibited the hyphal growth | Action (C. auris; [8]): Synergism; reduction of MIC in the synergistic combination (C. auris; [8]): 2 ×; reduction of MIC in the synergistic combination (C. auris; NCR169C17–38 + NCR335C17–33 (3.12 μM), C. auris): 4 ×; concentration of drug A for the indicated action (C. auris; checkerboard, C. auris, 72 h, 30 °C, drug A NCR169C17–38 + drug B NCR169C17–38ox): 3.12 µM; FICB (C. auris; [10]): 0.125; concentration of drug B for the indicated action (C. auris; [10]): 0.78 µM; Action (C. auris; fluconazole + NCR169C17–38, C. auris): Additive; Minimal inhibitory concentration, Cp CBS 604 [5]: - |
| CC[C@H](C)[C@H](NC(=O)[C@@H]1CCCN1C(=O)[C@@H](NC(=O)[C@H](CS)NC(=O)[C@H](Cc1ccc(O)cc1)NC(=O)[C@H](CO)NC(=O)[C@H](CCCCN)NC(=O)[C@H](CCCNC(=N)N)NC(=O)[C@H](CS)NC(=O)[C@H](CCCNC(=N)N)NC(=O)[C@@H](NC(=O)[C@H](CC(N)=O)NC(=O)[C@H](C)NC(=O)[C@H](CCCNC(=N)N)NC(=O)[C@H](CCCNC(=N)N)NC(=O)[C@H](CC(C)C)NC(=O)[C@@H](N)CCCCN)C(C)C)C(C)C)C(N)=O [NCR335C17–33] (H-KLRRANVRCRKSYCVPI-NH2; N-terminus assumed) | fungicidal | practically only the yeast form was present | half MIC | Synergism | half MIC | shifted to the yeast form | MIC | reduced the abundance of the hyphal form | half MIC | completely inhibited the hyphal growth | concentration of drug B for the indicated action (C. auris; checkerboard, C. auris, 72 h, 30 °C, drug A NCR169C17–38 + drug B NCR335C17–33): 3.12 µM; FICB (C. auris; checkerboard, C. auris, 72 h, 30 °C, drug A NCR169C17–38 + drug B NCR335C17–33, * fictitious value, 25 µM used as MIC of NCR335C17–33): ≤ 0.25; Action (C. auris; fluconazole + NCR335C17–33, C. auris): Indifferent; Minimal inhibitory concentration, Cau 0381 (Candida auris 0381): - |

— PMC8037406, “Symbiotic NCR Peptide Fragments Affect the Viability, Morphology and Biofilm Formation of Candida Species” (International Journal of Molecular Sciences, 2021)
